The record followed here is ChEMBL document CHEMBL4339240, “Structural Elucidation of Presilphiperfolane-7α,8α-diol, a Bioactive Sesquiterpenoid from Pulicaria vulgaris: A Combined Approach of Solvent-Induced Chemical Shifts, GIAO Calculation of Chemical Shifts, and Full Spin Analysis” (J Nat Prod, 2019).

A value given as a limit tells only on which side of the number the result lay.

The nature of data set [1]: Toxicity in Artemia salina by brine shrimp lethality assay. Conditions: in vivo.
The nature of data set [2]: Toxicity in mouse assessed as induction of mortality. Conditions: in vivo.

With `O=C1C[C@@H]2OCC=C3CN4CC[C@]56c7ccccc7N1[C@H]5[C@H]2[C@H]3C[C@H]46.O=S(=O)(O)O`, the median lethal concentration (LC50) in data set [1] stood at 200 µM. Moreover, the LD50 in data set [2] was under 2 mg/kg.
